Source: patent US20240228390A1, “Chelated Nutrients and Methods of Use Thereof” (ICL AMERICA DO SUL S.A., priority 2021, published 2024)

Experiment: Stability testing at different pH levels
Type: physicochemical
Details: Chelate A (glutamic acid + malic acid)
Procedure: Stability testing at different PH levels was performed and turning to Table 1, there is a large range of the chelates' stability, wherein the structure of the chelates can be considered stable.

## [Zn(Glu)(Mal)]2Na [Chelate A Zn^2+]
Acid limit of stable pH range
  Stability pH of the chelates, Acid medium: 0.20
Alkaline limit of stable pH range
  Stability pH of the chelates, Alkaline medium: 11.30
